This note sets out measurements from PubChem BioAssay AID1053150 (Broad Institute, 2014).

In this experiment the test system is HepG2 13C-glycerol triglyceride synthesis, LC-MS, 24 h. The experiment is described as follows: inhibition of triglyceride synthesis rate, late-stage follow-up, mechanism study for Trib1 inducer project, cell-based, HepG2, LC-MS, 13C-glycerol labeling, cherry-pick (AID 1053150). The note with it: active compounds read high; dose or concentration not given here.

Take `CN1C(=O)c2cc(NC(=O)c3ccc(C(F)(F)F)cc3)ccc2OC[C@@H]2O[C@H](CC(=O)NC3Cc4ccccc4C3)CC[C@@H]21`: the TAG formation rate inhibition was 2%.
